Data: patent US12600709B2, “Nonpeptide somatostatin type 5 receptor agonists and uses thereof” (Crinetics Pharmaceuticals, Inc., priority 2019, dated 2026)

Target: T1, human somatostatin receptor subtype 5 (Homo sapiens, UniProt P35346)
T1 construct: expressed in transfected cells
Assay: cAMP assay for SST5R (inhibition of cAMP in CHO-K1 cells)
Type: cell-based
Conditions: Table A; inhibition of cAMP via human SST5 receptor; read-out: SST5 potency
Summary of the method: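 CHO-K1 cells stably expressing human SSTR5 were treated 20 min at 37 °C with compounds plus 1.6 μM NKH477 in HBSS, 0.5 mM HEPES pH 7.4, 0.1% BSA, 0.2 mM IBMX. Lysate cAMP measured by HTRF against a standard curve; EC50 from cAMP-versus-concentration plots.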

T1 sequence (P35346 whole entry): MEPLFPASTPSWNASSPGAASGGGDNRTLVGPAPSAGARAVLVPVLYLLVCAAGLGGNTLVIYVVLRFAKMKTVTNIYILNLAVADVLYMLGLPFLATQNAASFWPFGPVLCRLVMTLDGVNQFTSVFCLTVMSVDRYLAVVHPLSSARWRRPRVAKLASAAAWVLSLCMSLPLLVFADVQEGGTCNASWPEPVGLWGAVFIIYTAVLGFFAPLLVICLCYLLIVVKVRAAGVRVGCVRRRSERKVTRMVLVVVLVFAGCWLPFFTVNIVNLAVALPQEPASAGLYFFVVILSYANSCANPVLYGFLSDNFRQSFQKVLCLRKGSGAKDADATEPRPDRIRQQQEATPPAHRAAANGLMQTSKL

| Structure (SMILES) | EC50 |
| --- | --- |
| CC(C)CNC(=O)c1cncc(-c2cc(F)cc(F)c2)c1N1CC[C@](C)(N)C1 [1-46, 4-[(3S)-3-amino-3-methylpyrrolidin-1-yl]-5-(3,5-difluorophenyl)-N-(2-methylpropyl)pyridine-3-carboxamide] | < 10 nM |
| CC(F)(F)CNC(=O)c1cncc(-c2cc(F)cc(F)c2)c1N1CC[C@](C)(N)C1 [1-62, 4-[(3S)-3-amino-3-methylpyrrolidin-1-yl]-5-(3,5-difluorophenyl)-N-(2,2-difluoropropyl)pyridine-3-carboxamide] | < 10 nM |
| Cc1cccc2[nH]c(-c3cncc(C(=O)NC(C)CC(F)(F)F)c3N3CC[C@](C)(N)C3)nc12 (stereo partly drawn) [2-32, 4-[(3S)-3-amino-3-methylpyrrolidin-1-yl]-5-(4-methyl-1H-1,3-benzodiazol-2-yl)-N-(4,4,4-trifluorobutan-2-yl)pyridine-3-carboxamide] | < 10 nM |
| COc1ncc(C(=O)N[C@@H](C)C(F)(F)F)c(N2CC[C@](C)(N)C2)c1-c1cnc(C)nc1 [1-185, 4-[(3S)-3-amino-3-methylpyrrolidin-1-yl]-6-methoxy-5-(2-methylpyrimidin-5-yl)-N-[(2S)-1,1,1-trifluoropropan-2-yl]pyridine-3-carboxamide] | 10 to 100 nM |
| C[C@H](NC(=O)c1cnc(C(F)(F)F)c(-c2cc(F)cc(F)c2)c1N1CC[C@](C)(N)C1)C1CC1 [1-189, 4-[(3S)-3-amino-3-methylpyrrolidin-1-yl]-N-[(1S)-1-cyclopropylethyl]-5-(3,5-difluorophenyl)-6-(trifluoromethyl)pyridine-3-carboxamide] | < 10 nM |
| Cc1cccc2[nH]c(-c3cncc(C(=O)N4CCCC4(C)C)c3N3CC[C@](C)(N)C3)nc12 [2-20, (3S)-1-[3-(2,2-dimethylpyrrolidine-1-carbonyl)-5-(4-methyl-1H-1,3-benzodiazol-2-yl)pyridin-4-yl]-3-methylpyrrolidin-3-amine] | < 10 nM |
| Cn1ccc(CNC(=O)c2cnc(C#N)c(-c3cc(F)cc(F)c3)c2N2CC[C@](C)(N)C2)n1 [1-105, 4-[(3S)-3-amino-3-methylpyrrolidin-1-yl]-6-cyano-5-(3,5-difluorophenyl)-N-[(1-methyl-1H-pyrazol-3-yl)methyl]pyridine-3-carboxamide] | 10 to 100 nM |
| N#Cc1ncc(C(=O)NC2CCCC2)c(N2CC[C@H](N)C2)c1-c1cc(F)cc(F)c1 [1-82, 4-[(3S)-3-aminopyrrolidin-1-yl]-6-cyano-N-cyclopentyl-5-(3,5-difluorophenyl)pyridine-3-carboxamide] | < 10 nM |
| C[C@H](NC(=O)c1cnc(OCC(F)(F)F)c(-c2cc(F)cc(F)c2)c1N1CC[C@](C)(N)C1)C1CC1 [1-190, 4-[(3S)-3-amino-3-methylpyrrolidin-1-yl]-N-[(1S)-1-cyclopropylethyl]-5-(3,5-difluorophenyl)-6-(2,2,2-trifluoroethoxy)pyridine-3-carboxamide] | < 10 nM |
| COc1ncc(C(=O)N[C@@H](C)C2CC2)c(N2CC[C@](C)(N)C2)c1-c1cc(F)cc(F)c1 [1-141, 4-[(3S)-3-amino-3-methylpyrrolidin-1-yl]-N-[(1S)-1-cyclopropylethyl]-5-(3,5-difluorophenyl)-6-methoxypyridine-3-carboxamide] | < 10 nM |
| COc1ncc(C(=O)N2CCC(F)(F)CC2)c(N2CC[C@H](N)C2)c1-c1cc(F)cc(F)c1 [1-236, (3S)-1-[3-(3,5-difluorophenyl)-5-(4,4-difluoropiperidine-1-carbonyl)-2-methoxypyridin-4-yl]pyrrolidin-3-amine] | > 1000 nM |
| N#Cc1ncc(C(=O)N2CCCCC2)c(N2CC[C@H](N)C2)c1-c1cc(F)cc(F)c1 [1-80, 4-[(3S)-3-aminopyrrolidin-1-yl]-3-(3,5-difluorophenyl)-5-(piperidine-1-carbonyl)pyridine-2-carbonitrile] | 100 to 1000 nM |
| C[C@]1(N)CCN(c2c(C(=O)NC(C3CCC3)C(F)(F)F)cncc2-c2cc(F)cc(F)c2)C1 (stereo partly drawn) [1-56, 4-[(3S)-3-amino-3-methylpyrrolidin-1-yl]-N-(1-cyclobutyl-2,2,2-trifluoroethyl)-5-(3,5-difluorophenyl)pyridine-3-carboxamide] | < 10 nM |
| C[C@H](NC(=O)c1cnc(C#N)c(-c2cc(F)cc(F)c2)c1N1C[C@H](N)[C@@H](F)C1)C1CC1 (single isomer, unassigned) [1-136] | 10 to 100 nM |
| C[C@H](NC(=O)c1cnc(C#N)c(-c2cc(F)cc(F)c2)c1N1CC[C@@](N)(CF)C1)C1CC1 (single isomer, unassigned) [1-220] | < 10 nM |
| COC(=O)c1cnc(C(=O)N[C@@H](C)C2CC2)c(N2CC[C@](C)(N)C2)c1-c1cc(F)cc(F)c1 [4-4, methyl 5-[(3S)-3-amino-3-methylpyrrolidin-1-yl]-6-{[(1S)-1-cyclopropylethyl]carbamoyl}-4-(3,5-difluorophenyl)pyridine-3-carboxylate] | 10 to 100 nM |
| Cc1cccc2[nH]c(-c3cncc(C(=O)N4CCc5ccccc54)c3N3CC[C@](C)(N)C3)nc12 [2-34, (3S)-1-[3-(2,3-dihydro-1H-indole-1-carbonyl)-5-(4-methyl-1H-1,3-benzodiazol-2-yl)pyridin-4-yl]-3-methylpyrrolidin-3-amine] | 10 to 100 nM |
| CC1(C)CC1CNC(=O)c1cncc(-c2cc(F)cc(F)c2)c1N1CC[C@](C)(N)C1 (stereo partly drawn) [1-43, 4-[(3S)-3-amino-3-methylpyrrolidin-1-yl]-5-(3,5-difluorophenyl)-N-[(2,2-dimethylcyclopropyl)methyl]pyridine-3-carboxamide] | < 10 nM |
| C[C@H](NC(=O)c1cnc(C#N)c(-c2cc(F)cc(F)c2)c1N1CC[C@@](N)(CC(F)F)C1)C1CC1 (single isomer, unassigned) [1-119] | 100 to 1000 nM |
| CC1(CNC(=O)c2cncc(-c3cc(F)cc(F)c3)c2N2CC[C@](C)(N)C2)CC1 [1-32, 4-[(3S)-3-amino-3-methylpyrrolidin-1-yl]-5-(3,5-difluorophenyl)-N-[(1-methylcyclopropyl)methyl]pyridine-3-carboxamide] | < 10 nM |
| C[C@H](NC(=O)c1cncc(-c2ccc3c(c2)OC(F)(F)O3)c1N1CC[C@](C)(N)C1)C1CC1 [1-175, 4-[(3S)-3-amino-3-methylpyrrolidin-1-yl]-N-[(1S)-1-cyclopropylethyl]-5-(2,2-difluoro-2H-1,3-benzodioxol-5-yl)pyridine-3-carboxamide] | 10 to 100 nM |
| COCC1(N)CCN(c2c(C(=O)NC34CC(C3)C4)cncc2-c2cc(F)cc(F)c2)C1 (stereo not drawn) [1-36, 4-[3-amino-3-(methoxymethyl)pyrrolidin-1-yl]-N—{bicyclo[1.1.1]pentan-1-yl}-5-(3,5-difluorophenyl)pyridine-3-carboxamide] | 10 to 100 nM |
| Cn1ccnc1CNC(=O)c1cnc(C#N)c(-c2cc(F)cc(F)c2)c1N1CC[C@](C)(N)C1 [1-106, 4-[(3S)-3-amino-3-methylpyrrolidin-1-yl]-6-cyano-5-(3,5-difluorophenyl)-N-[(1-methyl-1H-imidazol-2-yl)methyl]pyridine-3-carboxamide] | 10 to 100 nM |
| Cn1cc(CNC(=O)c2cnc(C#N)c(-c3cc(F)cc(F)c3)c2N2CC[C@](C)(N)C2)cn1 [1-107, 4-[(3S)-3-amino-3-methylpyrrolidin-1-yl]-6-cyano-5-(3,5-difluorophenyl)-N-[(1-methyl-1H-pyrazol-4-yl)methyl]pyridine-3-carboxamide] | 10 to 100 nM |
| C[C@]1(N)CCN(c2c(C(=O)NCC3CCC3)cncc2-c2cc(F)cc(F)c2)C1 [1-33, 4-[(3S)-3-amino-3-methylpyrrolidin-1-yl]-N-(cyclobutylmethyl)-5-(3,5-difluorophenyl)pyridine-3-carboxamide] | < 10 nM |
| COc1ncc(C(=O)NC2CCC(C(F)(F)F)CC2)c(N2CC[C@H](N)C2)c1-c1cc(F)cc(F)c1 (stereo partly drawn) [1-193, 4-[(3S)-3-aminopyrrolidin-1-yl]-5-(3,5-difluorophenyl)-6-methoxy-N-[4-(trifluoromethyl)cyclohexyl]pyridine-3-carboxamide] | 100 to 1000 nM |
| COc1ncc(C(=O)NC(C2CC2)C(F)(F)F)c(N2CC[C@H](N)C2)c1-c1cc(F)cc(F)c1 (stereo partly drawn) [1-194, 4-[(3S)-3-aminopyrrolidin-1-yl]-N-(1-cyclopropyl-2,2,2-trifluoroethyl)-5-(3,5-difluorophenyl)-6-methoxypyridine-3-carboxamide] | < 10 nM |
